# Laboratory results as given in US6136992A, “2-alkoxy estradiols and derivatives thereof” (The United States of America as represented by the …, priority 1998, dated 2000).
# Tested on: HL-60(TB)
# Experiment: NCI screen, leukemia
# Format: cell-based
# Conditions: Homo sapiens, read-out: Log10 GI50, HL-60(TB) (converted)
structure (smiles),measurement,value
"C[C@]12CC[C@@H]3c4cc(OCC(F)(F)F)c(O)cc4C(=NO)C[C@H]3[C@@H]1CC[C@@H]2O [Compound 12, 2-(2',2', 2'-Trifluoroethoxy)-6-Hydroximino-Estra-1,3,5(10)-Triene-3,17β-Diol]",GI50,< 0.01 µM
